In publication PMC9127163, “Lysosomal Targeted Cyclometallic Iridium(Ⅲ) Salicylaldehyde-Coumarin Schiff Base Complexes and Anticancer Application” (Frontiers in Chemistry, 2022):

Experiments:
Type in all cases: cell-based, human
BEAS-2B cells [1] = test: MTT cytotoxicity assay, BEAS-2B cells; settings: 24 h
Text: (§1) MTT assay was utilized to evaluate the anticancer activity of Ir1-Ir6 toward A549 cells (human non-small cell lung cancer cells, one of the deadliest types of cancer in both developing and developed countries) along with cisplatin (metal anticancer drug widely used in clinic) as a control and compared with the cytotoxicity against noncancerous BEAS-2B cells (epithelial cells isolated from pathological sections of normal bronchial epithelium from non-cancerous individuals). […] Additionally, the substitution sites of coumarin (6- and 7-) have little effect on these complexes, however, the peripheral substituents show a significant effect on the structure−activity. […] In addition, the data is even better than the reported traditional cyclometallic Ir^III complexes (usually depicted as [(ppy)2Ir (L^L)], L^L = N^N, C^N, C^O, O^N, P^P, etc., Supplementary Table S3). […]
(§2) After plating 5000 cells per well in 96-well plates, the cells were preincubated in drug-free media at 310 K for 24 h before adding different concentrations of drugs to be tested. […] Afterwards, 100 μL of DMSO was transferred into each well to dissolve the purple formazan, and results were measured using a microplate reader (DNM-9606, Perlong Medical, Beijing, China) at an absorbance of 570 nm. […]

A549 cells [2] = test: MTT cytotoxicity assay, A549 cells; settings: 24 h
Text: as §1, §2

A549 cells [3] = test: Mitochondrial membrane potential (JC-1) flow cytometry, A549 cells; settings: A549, positive control CCCP (5 μM), 20 min
Text: Mitochondria, the main intracellular energy source, play an important role in the process of apoptosis. Disruption of mitochondrial membrane potential (MMP) is usually identified as the early signals of cell apoptotic. JC-1, a liphile cationic fluorescent dye, is generally used to detect the change of MMP, and it emits strong red fluorescence in the normal mitochondrial matrix and green fluorescence after depolarization activation in apoptotic cells ([Antonicka et al., 2017]). In this study, flow cytometry was utilized to analyze this change after the treatment of Ir2 at a gradient concentration. […] In addition, intracellular reactive oxygen species (ROS) is mainly produced and stored in mitochondria, and the accumulation of intracellular ROS can lead to apoptosis ([Romero-Canelón et al., 2015]). A549 and BEAS-2B cells were stained with DCFH-DA after incubated with Ir2 (1.0 × IC50 and 2.0 × IC50) for 24 h (Figure 8B). The intracellular ROS levels increased in a dose-dependent manner. […]
(§3) Analysis of the changes of mitochondrial potential in cells after exposure to Ir2 were carried out using the mitochondrial membrane potential assay kit with JC-1 (Beyotime Institute of Biotechnology, Shanghai, China) according to the manufacturer’s instructions. […] The samples were immediately analyzed by a flow cytometer (ACEA NovoCyte, Hangzhou, China). […]

BEAS-2B cells [4] = test: Mitochondrial membrane potential (JC-1) flow cytometry, BEAS-2B cells; settings: positive control CCCP (5 μM), 20 min
Text: Mitochondria, the main intracellular energy source, play an important role in the process of apoptosis. Disruption of mitochondrial membrane potential (MMP) is usually identified as the early signals of cell apoptotic. JC-1, a liphile cationic fluorescent dye, is generally used to detect the change of MMP, and it emits strong red fluorescence in the normal mitochondrial matrix and green fluorescence after depolarization activation in apoptotic cells ([Antonicka et al., 2017]). In this study, flow cytometry was utilized to analyze this change after the treatment of Ir2 at a gradient concentration. […] In addition, intracellular reactive oxygen species (ROS) is mainly produced and stored in mitochondria, and the accumulation of intracellular ROS can lead to apoptosis ([Romero-Canelón et al., 2015]). A549 and BEAS-2B cells were stained with DCFH-DA after incubated with Ir2 (1.0 × IC50 and 2.0 × IC50) for 24 h (Figure 8B). The intracellular ROS levels increased in a dose-dependent manner.
as §3

N.N.[Cl][Pt][Cl] [Cisplatin, reference compound]
IC50 (BEAS-2B cells [1]): 38.4 ± 2.8 µM
IC50 (A549 cells [2]): 21.3 ± 1.7 µM

N#CC(C#N)=NNc1cccc(Cl)c1 [Positive Control, carbonyl cyanide 3-chlorophenylhydrazone, reference compound]
Percentage (%) JC-1 Aggregates (A549 cells [3]): 22.63±0.55%
Percentage (%) JC-1 Monomers (depolarized cells) (A549 cells [3]): 77.37±0.55%
Percentage (%) JC-1 Aggregates (BEAS-2B cells [4]): 11.60±0.51%
Percentage (%) JC-1 Monomers (BEAS-2B cells [4]): 88.40±0.33%
